# In PubChem BioAssay AID330 (DTP/NCI, 2004):
# Where “and” joins values, the source holds several entries; their conditions need not be identical. Equal values may be shown once. Inconclusive results and toxic doses are left out.
# Tested on: P388 leukemia ip, CD2F1 mice, survival T/C
# Test: NCI In Vivo Anticancer Drug Screen. Data for tumor model P388 Leukemia (intraperitoneal) in CD2F1 (CDF1) mice
# Conditions: endpoint: median survival time, higher = longer survival
# In short: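 Mice carrying the transplanted tumor received test compound or vehicle. Survival was recorded in each group, and the value is the treated-group measurement divided by that of the vehicle-treated control group.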
# [1] = dose: 50.0 mg/kg/injection, schedule: Q01DX009 (ip), vehicle: saline with Tween-80
# [2] = dose: 100.0 mg/kg/injection, schedule: Q01DX009 (ip), vehicle: saline with Tween-80
# [3] = dose: 200.0 mg/kg/injection, schedule: Q01DX009 (ip), vehicle: saline with Tween-80
# [4] = dose: 50.0 mg/kg/injection, schedule: Q01DX005 (ip), vehicle: saline with Tween-80
# [5] = dose: 100.0 mg/kg/injection, schedule: Q01DX005 (ip), vehicle: saline with Tween-80
# [6] = dose: 200.0 mg/kg/injection, schedule: Q01DX005 (ip), vehicle: saline with Tween-80
# [7] = dose: 200.0 mg/kg/injection, schedule: Q04DX003 (ip), vehicle: saline with Tween-80
# [8] = dose: 400.0 mg/kg/injection, schedule: Q01DX009 (ip), vehicle: saline with Tween-80
# [9] = dose: 400.0 mg/kg/injection, schedule: Q04DX003 (ip), vehicle: saline with Tween-80
# [10] = dose: 50.0 mg/kg/injection, schedule: Q01DX005 (ip), vehicle: Klucel (hydroxypropylcellulose) (HPC)
# [11] = dose: 100.0 mg/kg/injection, schedule: Q01DX005 (ip), vehicle: Klucel (hydroxypropylcellulose) (HPC)
# [12] = dose: 200.0 mg/kg/injection, schedule: Q01DX005 (ip), vehicle: Klucel (hydroxypropylcellulose) (HPC)
# [13] = dose: 100.0 mg/kg/injection, schedule: Q04DX003 (ip), vehicle: saline with Tween-80
# [14] = dose: 50.0 mg/kg/injection, schedule: Q01DX001 (ip), vehicle: Klucel (hydroxypropylcellulose) (HPC)
# [15] = dose: 50.0 mg/kg/injection, schedule: Q01DX005 (ip), vehicle: saline
# [16] = dose: 25.0 mg/kg/injection, schedule: Q01DX009 (ip), vehicle: saline with Tween-80
smiles,measurement,setting,value
CC(/C=C/c1ccccc1)=Nc1ccccc1,T/C,[1],109 % of control and 112 % of control
same,T/C,[2],114 % of control and 123 % of control
same,T/C,[3],123 % of control
C[N+]1(C)CCOC(O)(c2ccccc2)C1 (configuration not stated),T/C,"dose: 6.25 mg/kg/injection, schedule: Q01DX009 (ip), vehicle: saline",104 % of control
same,T/C,"dose: 12.5 mg/kg/injection, schedule: Q01DX009 (ip), vehicle: saline",98 % of control
same,T/C,"dose: 25.0 mg/kg/injection, schedule: Q01DX009 (ip), vehicle: saline",100 % of control
CO/N=C1\CC[C@@]2(C)[C@@H](CC[C@@H]3[C@@H]2CC[C@]2(C)C([C@H](C)CCCC(C)C)CC[C@@H]32)C1 (some centres not stated),T/C,[4],97 % of control
same,T/C,[5],95 % of control
same,T/C,[6],100 % of control
CCOC(=O)NC(C)(C)CN(C(=O)OCC)c1ccccc1,T/C,[2],94 % of control
same,T/C,[3],116 % of control
same,T/C,[7],95 % of control
same,T/C,[8],116 % of control
same,T/C,[9],104 % of control
CC(C)S(=O)(=O)n1c(N)nc2ccc(/C(=N/O)c3ccccc3)cc21,T/C,[10],100 % of control
same,T/C,[11],101 % of control
same,T/C,[12],95 % of control
CCN1C(N)=NS(=O)(=O)c2ccccc21,T/C,"dose: 100.0 mg/kg/injection, schedule: Q04DX002 (ip), vehicle: saline with Tween-80",104 % of control
same,T/C,"dose: 200.0 mg/kg/injection, schedule: Q04DX002 (ip), vehicle: saline with Tween-80",104 % of control
same,T/C,"dose: 400.0 mg/kg/injection, schedule: Q04DX002 (ip), vehicle: saline with Tween-80",106 % of control
CCOC(=O)C12CCCC1=NN=C2C1=NN=C2CCCC21C(=O)OCC (configuration not stated),T/C,"dose: 60.0 mg/kg/injection, schedule: Q01DX005 (ip), vehicle: saline",103 % of control
same,T/C,"dose: 120.0 mg/kg/injection, schedule: Q01DX005 (ip), vehicle: saline",98 % of control
same,T/C,"dose: 240.0 mg/kg/injection, schedule: Q01DX005 (ip), vehicle: saline",101 % of control
N#CCCn1nc(SCc2ccccc2)c(=S)[nH]c1=O,T/C,[4],95 % of control
same,T/C,[5],98 % of control
same,T/C,[6],100 % of control
CCNC(=O)/C=C/c1cccc(Br)c1,T/C,[4],105 % of control
same,T/C,[5],105 % of control
same,T/C,[6],98 % of control
CC1C(=O)OC2CC[N+]3(C(=O)C(F)(F)F)CC4OC4(COC(=O)C(C)(O)C1(C)O)C23 (configuration not stated),T/C,"dose: 60.0 mg/kg/injection, schedule: Q01DX005 (ip), vehicle: suspension in saline",104 % of control
same,T/C,"dose: 120.0 mg/kg/injection, schedule: Q01DX005 (ip), vehicle: suspension in saline",93 % of control
same,T/C,"dose: 240.0 mg/kg/injection, schedule: Q01DX005 (ip), vehicle: suspension in saline",92 % of control
CSC(=NNC(N)=O)SC,T/C,[13],100 % of control
same,T/C,[7],102 % of control
same,T/C,[9],102 % of control
CC(=O)c1c(-c2ccccc2)noc1-c1ccccc1,T/C,"dose: 100.0 mg/kg/injection, schedule: Q04DX003 (ip), vehicle: saline",102 % of control
same,T/C,"dose: 200.0 mg/kg/injection, schedule: Q04DX003 (ip), vehicle: saline",102 % of control
same,T/C,"dose: 400.0 mg/kg/injection, schedule: Q04DX003 (ip), vehicle: saline",101 % of control
CCOC(=O)CCC1(C(=O)OC)C(=O)CCCCCCCC1C(=O)OC (configuration not stated),T/C,[4],101 % of control
same,T/C,[5],98 % of control
same,T/C,[6],94 % of control
Nc1ccc(C(=O)Oc2ccc([N+](=O)[O-])cc2)cc1,T/C,[13],95 % of control
same,T/C,[7],90 % of control
COC1OC(COC(=O)c2ccccc2)C(=O)C(OC(=O)c2ccccc2)C1N(O)c1ccccc1 (configuration not stated),T/C,"dose: 7.5 mg/kg/injection, schedule: Q01DX005 (ip), vehicle: Klucel (hydroxypropylcellulose) (HPC)",99 % of control
same,T/C,"dose: 15.0 mg/kg/injection, schedule: Q01DX005 (ip), vehicle: Klucel (hydroxypropylcellulose) (HPC)",104 % of control
same,T/C,"dose: 30.0 mg/kg/injection, schedule: Q01DX005 (ip), vehicle: Klucel (hydroxypropylcellulose) (HPC)",95 % of control
COc1cc(C)c(/C(=N/O)n2nnc(-c3ccc(C)cc3)n2)c(C)c1,T/C,"dose: 100.0 mg/kg/injection, schedule: Q01DX001 (ip), vehicle: saline with Tween-80",92 % of control
same,T/C,"dose: 200.0 mg/kg/injection, schedule: Q01DX001 (ip), vehicle: saline with Tween-80",91 % of control
CCCCCCC(=O)/C=C/c1ccc(OS(=O)(=O)c2ccccc2)cc1,T/C,[1],105 % of control
same,T/C,[2],100 % of control
same,T/C,[3],101 % of control
O=C1C=C/C(=C\c2ccc(Cl)cc2)O1,T/C,"dose: 100.0 mg/kg/injection, schedule: Q04DX002 (ip), vehicle: Klucel (hydroxypropylcellulose) (HPC)",99 % of control
same,T/C,"dose: 200.0 mg/kg/injection, schedule: Q04DX002 (ip), vehicle: Klucel (hydroxypropylcellulose) (HPC)",107 % of control
same,T/C,"dose: 400.0 mg/kg/injection, schedule: Q04DX002 (ip), vehicle: Klucel (hydroxypropylcellulose) (HPC)",96 % of control
Cc1nnc2cccc(Cl)n12,T/C,[14],106 % of control
same,T/C,"dose: 100.0 mg/kg/injection, schedule: Q01DX001 (ip), vehicle: Klucel (hydroxypropylcellulose) (HPC)",106 % of control
same,T/C,"dose: 200.0 mg/kg/injection, schedule: Q01DX001 (ip), vehicle: Klucel (hydroxypropylcellulose) (HPC)",99 % of control
O=C1CCC(C(Sc2ccccc2)(Sc2ccccc2)Sc2ccccc2)C1 (configuration not stated),T/C,"dose: 50.0 mg/kg/injection, schedule: Q01DX009 (ip), vehicle: Klucel (hydroxypropylcellulose) (HPC)",97 % of control
same,T/C,"dose: 100.0 mg/kg/injection, schedule: Q01DX009 (ip), vehicle: Klucel (hydroxypropylcellulose) (HPC)",90 % of control
same,T/C,"dose: 200.0 mg/kg/injection, schedule: Q01DX009 (ip), vehicle: Klucel (hydroxypropylcellulose) (HPC)",89 % of control
NS(=O)(=O)c1ccc(N=Cc2ccccc2)cc1,T/C,[2],103 % of control
same,T/C,[3],100 % of control
same,T/C,[8],98 % of control
CSc1noc(N)n1,T/C,"dose: 12.5 mg/kg/injection, schedule: Q01DX005 (ip), vehicle: saline",94 % of control
same,T/C,"dose: 25.0 mg/kg/injection, schedule: Q01DX005 (ip), vehicle: saline",91 % of control
same,T/C,[15],103 % of control and 94 % of control
CC(C)(C)OC(=O)NC(CCC(=O)OCc1ccccc1)C(=O)ON1C(=O)CCC1=O (configuration not stated),T/C,[4],104 % of control
same,T/C,[5],114 % of control
same,T/C,[6],102 % of control
O=C1c2ccsc2C(=O)c2ccsc21,T/C,"dose: 12.5 mg/kg/injection, schedule: Q01DX009 (ip), vehicle: saline with Tween-80",101 % of control
same,T/C,[16],105 % of control
same,T/C,[1],101 % of control
same,T/C,[2],99 % of control
COc1cc(NC(C)CN(CC(C)C)CC(C)C)c2ncccc2c1Cl (configuration not stated),T/C,[15],100 % of control
same,T/C,"dose: 100.0 mg/kg/injection, schedule: Q01DX005 (ip), vehicle: saline",103 % of control
same,T/C,"dose: 200.0 mg/kg/injection, schedule: Q01DX005 (ip), vehicle: saline",116 % of control
CC(NS(=O)(=O)c1ccccc1)c1ccccc1 (configuration not stated),T/C,"dose: 100.0 mg/kg/injection, schedule: Q04DX003 (ip), vehicle: Klucel (hydroxypropylcellulose) (HPC)",100 % of control
same,T/C,"dose: 200.0 mg/kg/injection, schedule: Q04DX003 (ip), vehicle: Klucel (hydroxypropylcellulose) (HPC)",106 % of control
same,T/C,"dose: 400.0 mg/kg/injection, schedule: Q04DX003 (ip), vehicle: Klucel (hydroxypropylcellulose) (HPC)",113 % of control
CCC[CH2][Sn]([CH2]CCC)([S]C(C)=O)[S]C(C)=O,T/C,"dose: 12.5 mg/kg/injection, schedule: Q01DX001 (ip), vehicle: Klucel (hydroxypropylcellulose) (HPC)",113 % of control
same,T/C,"dose: 25.0 mg/kg/injection, schedule: Q01DX001 (ip), vehicle: Klucel (hydroxypropylcellulose) (HPC)",105 % of control
same,T/C,[14],114 % of control
CCCCCOCC(=O)O,T/C,[16],104 % of control
same,T/C,[1],94 % of control
same,T/C,[2],96 % of control
CC(=O)c1ccc(NC(=O)C#N)cc1,T/C,"dose: 7.5 mg/kg/injection, schedule: Q01DX005 (ip), vehicle: saline with Tween-80",104 % of control
same,T/C,"dose: 15.0 mg/kg/injection, schedule: Q01DX005 (ip), vehicle: saline with Tween-80",110 % of control
COC(=O)[C@H](NC(=O)c1ccccc1)[C@@H](O)/C=C/c1ccccc1,T/C,[4],94 % of control
same,T/C,[6],87 % of control
CC1=N/C(=C\c2ccc(Br)cc2)C(=O)O1,T/C,[10],109 % of control
same,T/C,[11],98 % of control
same,T/C,[12],112 % of control
